According to patent publication US20180265515A1 (Genentech, Inc., priority 2015, published 2018):

Key:
[1] = test system: JAK1-dependent STAT6 phosphorylation downstream of IL-13 stimulation in BEAS-2B human bronchial epithelial cells; assay: JAK1 pathway assay in BEAS-2B cells (IL-13 stimulated STAT6 phosphorylation, MSD); format: cell-based; settings: read-out: P-STAT6 BEAS2B + IL13 IC50
In short: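 BEAS-2B human bronchial epithelial cells, plated the day before in complete growth medium, were preincubated with compound for 1 hr at 37° C (0.2% DMSO final), then stimulated with IL-13 at its EC90 for 15 min. STAT6 phosphorylation in lysates was read by MSD; EC50 was taken as 50% inhibition versus DMSO control.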

[2] = target: T1, isolated recombinant JAK2 kinase domain (Homo sapiens, UniProt O60674); assay: JAK2 enzyme assay (Caliper LabChip, Ki); format: biochemical; settings: 25 μM ATP
T1 construct: The activity of the isolated recombinant JAK1 and JAK2 kinase domain was measured
T1 sequence (O60674 849-1124 limits assumed): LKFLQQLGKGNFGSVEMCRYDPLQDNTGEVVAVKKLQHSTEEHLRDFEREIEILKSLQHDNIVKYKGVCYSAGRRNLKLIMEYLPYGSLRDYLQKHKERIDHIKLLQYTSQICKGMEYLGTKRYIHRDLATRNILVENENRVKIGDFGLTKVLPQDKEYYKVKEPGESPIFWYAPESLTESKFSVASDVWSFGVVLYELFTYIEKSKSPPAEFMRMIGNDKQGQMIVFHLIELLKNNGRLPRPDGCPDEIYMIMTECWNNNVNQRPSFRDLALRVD
In short: (§1)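 Caliper LabChip read-out: fraction of FAM-labeled JAK3-derived peptide converted to phosphopeptide by isolated JAK1/JAK2 kinase domain. Reaction 30 min, 22° C; stopped with EDTA, 50 mM final. Ki via Morrison tight-binding model, Ki=Ki,app/(1+[ATP]/Km,app).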

[3] = target: T2, isolated recombinant JAK1 kinase domain (Homo sapiens, UniProt P23458); assay: JAK1 enzyme assay (Caliper LabChip, Ki); format: biochemical; settings: recombinant JAK1 kinase domain, 25 μM ATP
T2 construct: The activity of the isolated recombinant JAK1 and JAK2 kinase domain was measured
T2 sequence (P23458 875-1153 limits assumed): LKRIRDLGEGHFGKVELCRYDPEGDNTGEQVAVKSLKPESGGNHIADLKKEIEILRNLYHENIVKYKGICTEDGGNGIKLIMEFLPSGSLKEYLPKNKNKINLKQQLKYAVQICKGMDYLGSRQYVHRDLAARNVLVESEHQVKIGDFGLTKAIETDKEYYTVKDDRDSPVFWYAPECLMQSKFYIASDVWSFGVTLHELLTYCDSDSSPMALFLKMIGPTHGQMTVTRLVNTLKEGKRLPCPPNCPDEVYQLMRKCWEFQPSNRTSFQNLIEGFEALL
In short: as §1

CSc1ccc(OC(F)F)c(-c2nn(CC(=O)N3CCC(N4CCN(C)CC4)CC3)cc2NC(=O)c2cnn3cccnc23)c1 [Example 63, N-[3-[2-(difluoromethoxy)-5-(methylsulfanyl)phenyl]-1-[2-[4-(4-methylpiperazin-1-yl)piperidin-1-yl]-2-oxoethyl]-1H-pyrazol-4-yl]pyrazolo[1,5-a]pyrimidine-3-carboxamide]
IC50 [1]: 22 nM | Ki [2]: 0.7 nM | Ki [3]: 0.35 nM

CSc1ccc(OC(F)F)c(-c2nn(CC(=O)N3CCC(CN4CCN(CC(=O)N(C)C)[C@H](C)C4)CC3)cc2NC(=O)c2cnn3cccnc23)c1 [Example 97, N-[3-[2-(difluoromethoxy)-5-methylsulfanyl-phenyl]-1-[2-[4-[[(3R)-4-[2-(dimethylamino)-2-oxo-ethyl]-3-methyl-piperazin-1-yl]methyl]-1-piperidyl]-2-oxo-ethyl]pyrazol-4-yl]pyrazolo[1,5-a]pyrimidine-3-carboxamide]
IC50 [1]: 30 nM | Ki [2]: 0.62 nM | Ki [3]: 0.38 nM

N#CC1(CNC2CCN(C(=O)Cn3cc(NC(=O)c4cnn5cccnc45)c(-c4cc(SC5COC5)ccc4OC(F)F)n3)CC2)CC1 [Example 189, N-[1-[2-[4-[(1-cyanocyclopropyl)methylamino]-1-piperidyl]-2-oxo-ethyl]-3-[2-(difluoromethoxy)-5-(oxetan-3-ylsulfanyl)phenyl]pyrazol-4-yl]pyrazolo[1,5-a]pyrimidine-3-carboxamide]
IC50 [1]: 770 nM | Ki [2]: 3 nM | Ki [3]: 1 nM

CSc1ccc(OC(F)F)c(-c2nn(CC(=O)N3CCC(N4CCC[C@H]4C(=O)N(C)C)CC3)cc2NC(=O)c2cnn3cccnc23)c1 [Example 47, N-[3-[2-(difluoromethoxy)-5-methylsulfanyl-phenyl]-1-[2-[4-[(2S)-2-(dimethylcarbamoyl)pyrrolidin-1-yl]-1-piperidyl]-2-oxo-ethyl]pyrazol-4-yl]pyrazolo[1,5-a]pyrimidine-3-carboxamide]
IC50 [1]: 350 nM | Ki [2]: 1.3 nM | Ki [3]: 0.52 nM

CSc1ccc(OC(F)F)c(-c2nn(CC(=O)N3CCC(N4CCN(C5COC5)CC4)CC3)cc2NC(=O)c2cnn3cccnc23)c1 [Example 69, N-[3-[2-(difluoromethoxy)-5-methylsulfanyl-phenyl]-1-[2-[4-[4-(oxetan-3-yl)piperazin-1-yl]-1-piperidyl]-2-oxo-ethyl]pyrazol-4-yl]pyrazolo[1,5-a]pyrimidine-3-carboxamide]
IC50 [1]: 50 nM | Ki [2]: 0.71 nM | Ki [3]: 0.35 nM

CSc1ccc(OC(F)F)c(-c2nn(CC(=O)N3CCC(N4CCOCC4CO)CC3)cc2NC(=O)c2cnn3cccnc23)c1 (stereo not drawn) [Example 85, N-[3-[2-(difluoromethoxy)-5-methylsulfanyl-phenyl]-1-[2-[4-[3-(hydroxymethyl)morpholin-4-yl]-1-piperidyl]-2-oxo-ethyl]pyrazol-4-yl]pyrazolo[1,5-a]pyrimidine-3-carboxamide]
IC50 [1]: 110 nM | Ki [2]: 0.38 nM | Ki [3]: 0.33 nM

CCSc1ccc(OC(F)F)c(-c2n[nH]cc2NC(=O)c2cnn3cccnc23)c1 [Example 192, N-[3-[2-(difluoromethoxy)-5-ethylsulfanyl-phenyl]-1H-pyrazol-4-yl]pyrazolo[1,5-a]pyrimidine-3-carboxamide]
IC50 [1]: 2 nM | Ki [2]: 0.055 nM | Ki [3]: 0.12 nM

COC(=O)N1CCN(CC2CCN(C(=O)Cn3cc(NC(=O)c4cnn5cccnc45)c(-c4cc(SC(C)C)ccc4OC(F)F)n3)CC2)CC1 [Example 150, methyl 4-[[1-(2-[3-[2-(difluoromethoxy)-5-(propan-2-ylsulfanyl)phenyl]-4-[pyrazolo[1,5-a]pyrimidine-3-amido]-1H-pyrazol-1-yl]acetyl)piperidin-4-yl]methyl]piperazine-1-carboxylate]
IC50 [1]: 15 nM | Ki [2]: 1.4 nM | Ki [3]: 0.6 nM

CC(C)Sc1ccc(OC(F)F)c(-c2nn(CCN)cc2NC(=O)c2cnn3cccnc23)c1 [Example 112, N-[1-(2-aminoethyl)-3-[2-(difluoromethoxy)-5-isopropylsulfanyl-phenyl]pyrazol-4-yl]pyrazolo[1,5-a]pyrimidine-3-carboxamide]
IC50 [1]: 18 nM | Ki [2]: 0.39 nM | Ki [3]: 0.39 nM

CC(C)Sc1ccc(OC(F)F)c(-c2nn(CC(=O)N3CCC(N(CCN4CCOCC4)C4COC4)CC3)cc2NC(=O)c2cnn3cccnc23)c1 [Example 147, N-[3-[2-(difluoromethoxy)-5-isopropylsulfanyl-phenyl]-1-[2-[4-[2-morpholinoethyl(oxetan-3-yl)amino]-1-piperidyl]-2-oxo-ethyl]pyrazol-4-yl]pyrazolo[1,5-a]pyrimidine-3-carboxamide]
IC50 [1]: 1000 nM | Ki [2]: 1.8 nM | Ki [3]: 0.73 nM

CSc1ccc(OC(F)F)c(-c2nn(CC(=O)N3CCC(N4CC5CC(C4)O5)CC3)cc2NC(=O)c2cnn3cccnc23)c1 [Example 75, N-[3-[2-(difluoromethoxy)-5-methylsulfanyl-phenyl]-1-[2-[4-(6-oxa-3-azabicyclo[3.1.1]heptan-3-yl)-1-piperidyl]-2-oxo-ethyl]pyrazol-4-yl]pyrazolo[1,5-a]pyrimidine-3-carboxamide]
IC50 [1]: 12 nM | Ki [2]: 0.38 nM | Ki [3]: 0.28 nM

CC(C)Sc1ccc(OC(F)F)c(-c2nn(CC(=O)N3CCC(N4CCn5ccnc5C4)CC3)cc2NC(=O)c2cnn3cccnc23)c1 [Example 146, N-[3-[2-(difluoromethoxy)-5-isopropylsulfanyl-phenyl]-1-[2-[4-(6,8-dihydro-5H-imidazo[1,2-a]pyrazin-7-yl)-1-piperidyl]-2-oxo-ethyl]pyrazol-4-yl]pyrazolo[1,5-a]pyrimidine-3-carboxamide]
IC50 [1]: 170 nM | Ki [2]: 0.72 nM | Ki [3]: 0.37 nM

CC(C)Sc1ccc(OC(F)F)c(-c2nn(CC(=O)N3CCN(C)CC3)cc2NC(=O)c2cnn3cccnc23)c1 [Example 117, N-[3-[2-(difluoromethoxy)-5-isopropylsulfanyl-phenyl]-1-[2-(4-methylpiperazin-1-yl)-2-oxo-ethyl]pyrazol-4-yl]pyrazolo[1,5-a]pyrimidine-3-carboxamide]
IC50 [1]: 21 nM | Ki [2]: 1.4 nM | Ki [3]: 0.7 nM

CC(C)Sc1ccc(OC(F)F)c(-c2nn(CC(=O)N3CCC(N4CCN(CC(=O)N5CCOCC5)CC4)CC3)cc2NC(=O)c2cnn3cccnc23)c1 [Example 152, N-[3-[2-(difluoromethoxy)-5-isopropylsulfanyl-phenyl]-1-[2-[4-[4-(2-morpholino-2-oxo-ethyl)piperazin-1-yl]-1-piperidyl]-2-oxo-ethyl]pyrazol-4-yl]pyrazolo[1,5-a]pyrimidine-3-carboxamide]
IC50 [1]: 290 nM | Ki [2]: 1.3 nM | Ki [3]: 0.52 nM

COC(=O)N1CCN(CC2CCN(C(=O)Cn3cc(NC(=O)c4cnn5cccnc45)c(-c4cc(SC5COC5)ccc4OC(F)F)n3)CC2)CC1 [Example 191, methyl 4-[[1-[2-[3-[2-(difluoromethoxy)-5-(oxetan-3-ylsulfanyl)phenyl]-4-(pyrazolo[1,5-a]pyrimidine-3-carbonylamino)pyrazol-1-yl]acetyl]-4-piperidyl]methyl]piperazine-1-carboxylate]
IC50 [1]: 49 nM | Ki [2]: 1 nM | Ki [3]: 0.44 nM

CSc1ccc(OC(F)F)c(-c2nn(CC(=O)N3CCC(N4CCn5ccnc5C4)CC3)cc2NC(=O)c2cnn3cccnc23)c1 [Example 73, N-[3-[2-(difluoromethoxy)-5-methylsulfanyl-phenyl]-1-[2-[4-(6,8-dihydro-5H-imidazo[1,2-a]pyrazin-7-yl)-1-piperidyl]-2-oxo-ethyl]pyrazol-4-yl]pyrazolo[1,5-a]pyrimidine-3-carboxamide]
IC50 [1]: 39 nM | Ki [2]: 0.25 nM | Ki [3]: 0.23 nM

CN(C1CCN(C(=O)Cn2cc(NC(=O)c3cnn4cccnc34)c(-c3cc(SC4CC4)ccc3OC(F)F)n2)CC1)C1COC1 [Example 171, N-[3-[5-cyclopropylsulfanyl-2-(difluoromethoxy)phenyl]-1-[2-[4-[methyl(oxetan-3-yl)amino]-1-piperidyl]-2-oxo-ethyl]pyrazol-4-yl]pyraxolo[1,5-a]pyrimidine-3-carboxamide]
IC50 [1]: 22 nM | Ki [2]: 0.78 nM | Ki [3]: 0.43 nM

CSc1ccc(OC(F)F)c(-c2nn(CC(=O)N3CCC(N(C)CCC#N)CC3)cc2NC(=O)c2cnn3cccnc23)c1 [Example 2, N-[1-[2-[4-[2-cyanoethyl(methyl)amino]-1-piperidyl]-2-oxo-ethyl]-3-[2-(difluoromethoxy)-5-methylsulfanyl-phenyl]pyrazol-4-yl]pyrazolo[1,5-a]pyrimidine-3-carboxamide]
IC50 [1]: 25 nM | Ki [2]: 0.42 nM | Ki [3]: 0.28 nM

CSc1ccc(OC(F)F)c(-c2nn(CC(=O)N3CCN(CC4CCOCC4)CC3)cc2NC(=O)c2cnn3cccnc23)c1 [Example 65, N-[3-[2-(difluoromethoxy)-5-methylsulfanyl-phenyl]-1-[2-oxo-2-[4-(tetrahydropyran-4-ylmethyl)piperazin-1-yl]ethyl]pyrazol-4-yl]pyrazolo[1,5-a]pyrimidine-3-carboxamide]
IC50 [1]: 15 nM | Ki [2]: 0.49 nM | Ki [3]: 0.41 nM

CSc1ccc(OC(F)F)c(-c2nn(CC(=O)N3CCC(N4CCS(=O)(=O)CC4)CC3)cc2NC(=O)c2cnn3cccnc23)c1 [Example 62, N-[3-[2-(difluoromethoxy)-5-methylsulfanyl-phenyl]-1-[2-[4-(1,1-dioxo-1,4-thiazinan-4-yl)-1-piperidyl]-2-oxo-ethyl]pyrazol-4-yl]pyrazolo[1,5-a]pyrimidine-3-carboxamide]
IC50 [1]: 160 nM | Ki [2]: 0.38 nM | Ki [3]: 0.27 nM
